Species on record: Rattus norvegicus
Assay: Open TG-GATES - Regimen: Daily Repeat
Assay type: toxicity, organism-based, Sprague-Dawley
Parameters: regimen Daily Repeat, gender Male, age 6 weeks
Details: in vivo, po, route gavage; for gamma-GTP / ALP / ALT / AST / BUN / CRE / Ca / DBIL / GLC / IP / K / LDH / Na / PL / RALB / TBIL / TC / TG / TP: tissue Plasma; for APTT / Bas / Eos / Fbg / Hb / Ht / Lym / MCH / MCHC / MCV / Mono / Neu / PT / Plat / RBC / Ret / WBC: tissue Blood; for KIDNEY_L / KIDNEY_R / KIDNEY_TOTAL: tissue Kidney; for LIVER: tissue Liver
[1] = 10 mg/kg, 72 h, dose level Low, time 3 day
[2] = 10 mg/kg, […], dose level Low, time 7 day
[3] = 10 mg/kg, […], dose level Low, time 14 day
[4] = 10 mg/kg, […], dose level Low, time 28 day

CSc1ccc2c(c1)N(CCC1CCCCN1C)c1ccccc1S2 (centres undefined) [THIORIDAZINE]
gamma-GTP (0 mg/kg, […], dose level Control, time 28 day): 1.4 IU/L | TERMINAL_BW [1]: 239 g | APTT [1]: 16.3 s | Bas [1]: 0% | Eos [1]: 1% | Fbg [1]: 219.4 mg/dL | Hb [1]: 13.5 g/dL | Ht [1]: 40.6% | Lym [1]: 81% | MCH [1]: 21.2 pg | MCHC [1]: 33.3% | MCV [1]: 63.6 fL | Mono [1]: 5.8% | Neu [1]: 12.4% | PT [1]: 11.9 s | Plat [1]: 107.3 x10_4/uL | RBC [1]: 638.4 x10_4/ul | Ret [1]: 8.8% | WBC [1]: 136.6 x10_2/uL | KIDNEY_L [1]: 1.1 g | KIDNEY_R [1]: 1.1 g | KIDNEY_TOTAL [1]: 2.2 g | LIVER [1]: 12.5 g | ALP [1]: 797.8 IU/L | ALT [1]: 35.6 IU/L | AST [1]: 62.2 IU/L | BUN [1]: 17.2 mg/dL | CRE [1]: 0.5 mg/dL | Ca [1]: 11 mg/dL | DBIL [1]: 0.042 mg/dL | GLC [1]: 193.2 mg/dL | IP [1]: 9 mg/dL | K [1]: 4.7 meq/L | LDH [1]: 82 IU/L | Na [1]: 138.2 meq/L | PL [1]: 163 mg/dL | RALB [1]: 3.9 g/dL | TBIL [1]: 0.3 mg/dL | TC [1]: 81.8 mg/dL | TG [1]: 137 mg/dL | TP [1]: 5.9 g/dL | gamma-GTP [1]: 1.6 IU/L | TERMINAL_BW [2]: 268.9 g | TERMINAL_BW [3]: 333.8 g | TERMINAL_BW [4]: 403.9 g | APTT [2]: 16.8 s | Bas [2]: 0% | Eos [2]: 0.8% | Fbg [2]: 223 mg/dL | Hb [2]: 13.9 g/dL | Ht [2]: 41.4% | Lym [2]: 79.2% | MCH [2]: 20.6 pg | MCHC [2]: 33.5% | MCV [2]: 61.5 fL | Mono [2]: 7% | Neu [2]: 13.2% | PT [2]: 12.1 s | Plat [2]: 118.8 x10_4/uL | RBC [2]: 674.2 x10_4/ul | Ret [2]: 5.2% | WBC [2]: 127.5 x10_2/uL | APTT [3]: 17.3 s | Bas [3]: 0% | Eos [3]: 0.8% | Fbg [3]: 237.8 mg/dL | Hb [3]: 14.7 g/dL | Ht [3]: 43.8% | Lym [3]: 84.4% | MCH [3]: 20.8 pg | MCHC [3]: 33.6% | MCV [3]: 62.1 fL | Mono [3]: 5.8% | Neu [3]: 9% | PT [3]: 11.7 s | Plat [3]: 115 x10_4/uL | RBC [3]: 706.6 x10_4/ul | Ret [3]: 4.2% | WBC [3]: 167.8 x10_2/uL | APTT [4]: 17.6 s | Bas [4]: 0% | Eos [4]: 1% | Fbg [4]: 233 mg/dL | Hb [4]: 15.4 g/dL | Ht [4]: 45.5% | Lym [4]: 83.6% | MCH [4]: 19.8 pg | MCHC [4]: 33.9% | MCV [4]: 58.3 fL | Mono [4]: 6.2% | Neu [4]: 9.6% | PT [4]: 12.1 s | Plat [4]: 121.4 x10_4/uL | RBC [4]: 780.6 x10_4/ul | Ret [4]: 2.6% | WBC [4]: 150 x10_2/uL | KIDNEY_L [2]: 1.1 g | KIDNEY_R [2]: 1.1 g | KIDNEY_TOTAL [2]: 2.3 g | KIDNEY_L [3]: 1.3 g | KIDNEY_R [3]: 1.4 g | KIDNEY_TOTAL [3]: 2.7 g | KIDNEY_L [4]: 1.5 g | KIDNEY_R [4]: 1.5 g | KIDNEY_TOTAL [4]: 3 g | LIVER [2]: 13.2 g | LIVER [3]: 15.4 g | LIVER [4]: 17.2 g | ALP [2]: 792.4 IU/L | ALT [2]: 34 IU/L | AST [2]: 61 IU/L | BUN [2]: 18.4 mg/dL | CRE [2]: 0.5 mg/dL | Ca [2]: 11.1 mg/dL | DBIL [2]: 0 mg/dL | GLC [2]: 197.2 mg/dL | IP [2]: 8.3 mg/dL | K [2]: 4.8 meq/L | LDH [2]: 84 IU/L | Na [2]: 139.4 meq/L | PL [2]: 172.8 mg/dL | RALB [2]: 4 g/dL | TBIL [2]: 0.3 mg/dL | TC [2]: 88.4 mg/dL | TG [2]: 118.6 mg/dL | TP [2]: 6 g/dL | gamma-GTP [2]: 1.2 IU/L | ALP [3]: 779.6 IU/L | ALT [3]: 33.6 IU/L | AST [3]: 62.8 IU/L | BUN [3]: 20.4 mg/dL | CRE [3]: 0.6 mg/dL | Ca [3]: 10.9 mg/dL | DBIL [3]: 0.002 mg/dL | GLC [3]: 178.6 mg/dL | IP [3]: 7.8 mg/dL | K [3]: 5.2 meq/L | LDH [3]: 110.2 IU/L | Na [3]: 139.4 meq/L | PL [3]: 167.8 mg/dL | RALB [3]: 4.1 g/dL | TBIL [3]: 0.3 mg/dL | TC [3]: 81.2 mg/dL | TG [3]: 158 mg/dL | TP [3]: 6.3 g/dL | gamma-GTP [3]: 1.2 IU/L | ALP [4]: 564 IU/L | ALT [4]: 32.4 IU/L | AST [4]: 63.4 IU/L | BUN [4]: 21.2 mg/dL | CRE [4]: 0.6 mg/dL | Ca [4]: 10.7 mg/dL | DBIL [4]: 0 mg/dL | GLC [4]: 180.8 mg/dL | IP [4]: 7.3 mg/dL | K [4]: 4.3 meq/L | LDH [4]: 131.8 IU/L | Na [4]: 140.4 meq/L | PL [4]: 162.4 mg/dL | RALB [4]: 4.2 g/dL | TBIL [4]: 0.2 mg/dL | TC [4]: 74 mg/dL | TG [4]: 177.2 mg/dL | TP [4]: 6.4 g/dL

Reference: ChEMBL document CHEMBL3885861, “Open TG-GATES”
